According to patent US8933228B2, “Respiratory formulations and compounds for use therein” (Respivert, Ltd., priority 2010, dated 2015):
Read-outs that look alike come from different tables or passages of the source.

Columns and labels:
[1] = tested on: Differentiated U937 cells; assay: MTT assay: cell viability; format: cell-based, human; conditions: for d-U937 MTT Assay 4 h: 5% FCS; for d-U937 MTT Assay 24 h: 10% FCS
Procedure: Differentiated U937 cells were pre-incubated with each test compound under two protocols: the first for 4 hr in 5% FCS and the second in 10% FCS for 24 h. The supernatant was replaced with 200 μL of new media and 10 μL of MTT stock solution (5 mg/mL) was added to each well. After incubation for 1 hr the media were removed, 200 μL of DMSO was added to each well and the plates were shaken lightly for 1 hr prior to reading the absorbance at 550 nm. The percentage loss of cell viability was calculated for each well relative to vehicle (0.5% DMSO) treatment. Consequently an apparent increase in cell viability for drug treatment relative to vehicle is tabulated as a negative percentage.

[2] = tested on: TNFα release in d-U937 cells; assay: LPS-induced TNFα release in d-U937 cells; format: cell-based; conditions: Homo sapiens, dU937, LPS 0.1 μg/mL, 4 hr, relative to 10 μg/mL BIRB796, read-out: d-U937 (LPS) TNFα REC50
Procedure: (§1) U937 cells, a human monocytic cell line, were differentiated to macrophage-type cells by incubation with phorbol myristate acetate (PMA; 100 ng/mL) for 48 to 72 hr, whereupon the cells become adherent. […] Coli: O111:B4, Sigma) for 4 hr. The supernatant was collected for determination of TNFα and IL-8 concentrations by sandwich ELISA (Duo-set, R&D systems). […] The relative 50% effective concentration (REC50) was determined from the resultant concentration-response curve. The inhibition of IL-8 production was calculated at each concentration of test compound by comparison with vehicle control.

[3] = tested on: ICAM-1 expression in BEAS2B cells; assay: Poly I:C-induced ICAM-1 induction in BEAS2B cells; format: cell-based; conditions: Homo sapiens, BEAS-2B, read-out: BEAS2B (polyIC) ICAM1 IC50
Procedure: Poly I:C (1 μg/mL) (Invivogene Ltd., San Diego, Calif.) was transfected into BEAS2B cells (human bronchial epithelial cells, ATCC) with Oligofectamine (Invitrogen, Carlsbad, Calif.). Cells were pre-incubated with final concentrations of test compounds for 2 hr and the level of ICAM1 expression on the cell surface was determined by cell-based ELISA. […] The cells were washed with PBS-Tween and incubated with the secondary antibody (HRP-conjugated anti-rabbit IgG, Dako Ltd., Glostrup, Denmark).

[4] = tested on: IL-8 release in d-U937 cells; assay: LPS-induced IL-8 release in d-U937 cells; format: cell-based; conditions: Homo sapiens, read-out: d-U937 (LPS) IL-8 IC50
Procedure: as §1

[5] = tested on: TNFα release in THP-1 cells; assay: LPS-induced TNFα release in THP-1 cells; format: cell-based; conditions: Homo sapiens, read-out: THP1 (LPS) TNFα IC50
Procedure: The inhibition of TNFα production was calculated at each concentration by comparison with vehicle control.

HRV16 = assay: Rhinovirus-titre assay; format: cell-based, human rhinovirus; conditions: Human rhinovirus sp.; for inhibition at 0.04 µg/mL: cell not marked b, test compounds 0.04 μg/mL per method (footnote b, 0.2 μg/mL)
Procedure: MRC5 cells (human lung fibroblast, ATCC) were infected with 1 MOI (multiplicity of infection of 1.0) of HRV16 and incubated for 1 hr at 33° C. with gentle shaking to stimulate adsorption. The cells were then washed with PBS, fresh media was added and the cells were incubated for a further 96 hr. The supernatant was collected and 10-fold serial dilutions of virus containing supernatant were prepared. All titrations were performed by infecting confluent Hela cell monolayers with serially diluted supernatant (10^−1-10^−5) and assessing the cytopathic effect by visual inspection 4 days after infection. The amount of virus required to infect 50% of Hela cells was calculated in each treatment as TCID50. Test compounds (0.04 μg/mL) were added 2 hr before HRV infection and 1 hr after infection when non-infected HRV was washed out. The anti-HRV activity of each test compound was determined as the difference of the log TCID50 of HRV16 in the presence of the compound with the log TCID50 of HRV16 in the absence of compound. […]

p38 MAPK γ (MAPK12) = p38 MAPK γ (MAPK12) (Homo sapiens (Human), UniProt P53778); assay: Enzyme inhibition assay (FRET, Z-LYTE), p38 MAPK gamma; format: biochemical; conditions: read-out: Enzyme Profile: IC50 Values p38γ
Procedure: (§2) The enzyme inhibitory activity of test compounds was determined by fluorescence resonance energy transfer (FRET) using synthetic peptides labelled with both donor and acceptor fluorophores (Z-LYTE, Invitrogen). Recombinant, phosphorylated p38 MAPK γ (MAPK12:Millipore) was diluted in HEPES buffer, mixed with compound at the desired final concentrations and incubated for 2 hr at RT. The FRET peptide (2 μM) and ATP (100 μM) were next added to the enzyme/compound mixture and incubated for 1 hr. Development reagent (protease) was added for 1 hr prior to detection in a fluorescence microplate reader. The site-specific protease only cleaves non-phosphorylated peptide and eliminates the FRET signal. Phosphorylation levels of each reaction were calculated using the ratio of coumarin emission (donor) over fluorescein emission (acceptor) with high ratios indicating high phosphorylation levels and low ratios indicating low phosphorylation levels.

cSrc enzyme = cSrc enzyme (Homo sapiens (Human), UniProt P12931); assay: c-SRC enzyme inhibition assay (FRET, Z'-LYTE); format: biochemical; conditions: read-out: Enzyme Profile: IC50 Values cSrc
p38 MAPK alpha (MAPK14) = p38 MAPK alpha (MAPK14) (Homo sapiens (Human), UniProt Q16539); assay: Enzyme inhibition assay (FRET, Z-LYTE), p38 MAPK alpha via MAPKAP-K2 activation; format: biochemical; conditions: read-out: Enzyme Profile: IC50 Values p38α
Procedure: as §2
For p38 MAPK alpha (MAPK14: Invitrogen), enzyme activity was evaluated indirectly by determining activation/phosphorylation of the down-stream molecule, MAPKAP-K2. The p38 MAPK a protein was mixed with compound for 2 hr at RT. […] Development reagent was then added and the mixture incubated for 1 hr before detection by fluorescence completed the assay protocol.
The enzyme inhibitory activity of compound was determined by fluorescence resonance energy transfer (FRET) using synthetic peptides labelled with both donor and acceptor fluorophores (Z′-LYTE, Invitrogen).

HCK enzyme = HCK enzyme (Homo sapiens (Human), UniProt P08631); assay: HCK enzyme inhibition assay (FRET, Z'-LYTE); format: biochemical; conditions: read-out: Enzyme Profile: IC50 Values HCK
[6] = BEAS2B cells, poly I:C 1 μg/mL, 18 hr
[7] = dU937, d-U937 cells, LPS 0.1 μg/mL, 4 hr
[8] = HRV16, cell marked b: performed at 0.2 μg/mL, read-out: HRV titre (inhibitory %): % inhibition observed vs. HRV16 infection control
[9] = HRV16, read-out: HRV titre (inhibitory %): % inhibition observed vs. HRV16 infection control

| Compound | d-U937 MTT Assay 4 h ([1]; performed at 10 μg/mL) | d-U937 MTT Assay 24 h ([1]; performed at 10 μg/mL) | EC50 [2] [nM] | IC50 [3, 6] [nM] | IC50 [4, 7] [nM] | IC50 ([5]; THP-1 cells, LPS 3 μg/mL, 4 hr) [nM] | inhibition at 0.2 µg/mL (HRV16; [8]) [%] | IC50 (p38 MAPK γ (MAPK12)) [nM] | d-U937 MTT Assay 4 h ([1]; 1 μg/ml) | d-U937 MTT Assay 24 h ([1]; 1 μg/ml) | IC50 (cSrc enzyme) [nM] | inhibition at 0.04 µg/mL (HRV16; [9]) [%] | IC50 (p38 MAPK alpha (MAPK14)) [nM] | IC50 (HCK enzyme) [nM] | IC50 ([3]; 18 h) [nM] | IC50 ([4]; dU937, 4 h) [nM] | IC50 ([5]; THP-1, 4 h) [nM] | inhibition at 0.2 µg/mL (HRV16; [9]) [%] |
| --- | --- | --- | --- | --- | --- | --- | --- | --- | --- | --- | --- | --- | --- | --- | --- | --- | --- | --- |
| Cc1ccc(-n2nc(C(C)(C)C)cc2NC(=O)Nc2ccc(OCCN3CCOCC3)c3ccccc23)cc1 [BIRB 796, 1-(3-tert-butyl-1-p-tolyl-1H-pyrazol-5-yl)-3-(4-(2-morpholinoethoxy)naphthalen-1-yl)urea, reference compound] | − ^d (− and + indicate the result is below and above the no significant effect threshold, respectively (<30% inhibition at a concentration of 1 μg/ml)) | − ^d (− and + indicate the result is below and above the no significant effect threshold, respectively (<30% inhibition at a concentration of 1 μg/ml)) | 4.8 | 3530 | > 1890 | 4.1 | 28 |  |  |  |  |  |  |  |  |  |  |  |
| Cc1ccc(-n2nc(C(C)(C)C)cc2NC(=O)Nc2ccc(Oc3ccnc4[nH]c(=O)cnc34)c3ccccc23)cc1 [Example 6] |  |  | 1.1 | 11 | 5.2 | 0.7 |  | 72 | − (− and + indicate the result is below and above the no significant effect threshold, respectively (<30% inhibition at a concentration of 1 μg/ml)) | − (− and + indicate the result is below and above the no significant effect threshold, respectively (<30% inhibition at a concentration of 1 μg/ml)) | 9 | 80 |  |  |  |  |  |  |
| Cc1ccc(-n2nc(C(C)(C)C)cc2NC(=O)Nc2ccc(Oc3ccnc4[nH]c(=O)cnc34)c3ccccc23)s1 [Example 21] |  |  | 7.1 |  | 3.3 | 11 |  |  | − (− and + indicate the result is below and above the no significant effect threshold, respectively (<30% inhibition at a concentration of 1 μg/ml)) | − (− and + indicate the result is below and above the no significant effect threshold, respectively (<30% inhibition at a concentration of 1 μg/ml)) |  | 80 |  |  |  |  |  |  |
| COc1ccc(-n2nc(C(C)(C)C)cc2NC(=O)Nc2ccc(OCc3ccnc4[nH]c(=O)cnc34)c3ccccc23)cc1 [Example 23] |  |  | 30 | 23 | 90 |  |  | 193 | − (− and + indicate the result is below and above the no significant effect threshold, respectively (<30% inhibition at a concentration of 1 μg/ml)) | − (− and + indicate the result is below and above the no significant effect threshold, respectively (<30% inhibition at a concentration of 1 μg/ml)) | 35 |  | 12 | 22 |  |  |  |  |
| Cc1ccc(-n2nc(C(C)C)cc2NC(=O)Nc2ccc(Oc3ccnc4[nH]c(=O)cnc34)c3ccccc23)cc1 [Example 30, 1-(3-isopropyl-1-(p-tolyl)-1H-pyrazol-5-yl)-3-(4-((3-oxo-3,4-dihydropyrido[2,3-b]pyrazin-8-yl)oxy)naphthalen-1-yl)urea] |  |  | 1.1 | 27 | 4.3 | 34 |  |  | − (− and + indicate the result is below and above the no significant effect threshold, respectively (<30% inhibition at a concentration of 1 μg/ml)) | − (− and + indicate the result is below and above the no significant effect threshold, respectively (<30% inhibition at a concentration of 1 μg/ml)) |  | 36 |  |  |  |  |  |  |
| CC(C)(C)c1cc(NC(=O)Nc2ccc(Oc3ccnc4[nH]c(=O)cnc34)c3ccccc23)n(-c2ccc(Cl)c(Cl)c2)n1 [Example 32, 1-(3-(tert-butyl)-1-(3,4-dichlorophenyl)-1H-pyrazol-5-yl)-3-(4-((3-oxo-3,4-dihydropyrido[2,3-b]pyrazin-8-yl)oxy)naphthalen-1-yl)urea] |  |  | 5.5 | 10 | 7 | 8.8 |  |  | − (− and + indicate the result is below and above the no significant effect threshold, respectively (<30% inhibition at a concentration of 1 μg/ml)) | − (− and + indicate the result is below and above the no significant effect threshold, respectively (<30% inhibition at a concentration of 1 μg/ml)) |  | 80 |  |  |  |  |  |  |
| COCC(=O)Nc1cc(Oc2ccc(NC(=O)Nc3cc(C(C)(C)C)nn3-c3ccc(C)cc3)c3ccccc23)ccn1 [Ref 2, N-(4-(4-(3-(3-tert-butyl-1-p-tolyl-1H-pyrazol-5-yl)ureido)naphthalen-1-yloxy)pyridin-2-yl)-2-methoxy acetamide, reference compound] |  |  | 0.13 |  |  |  | 100 |  | − (− and + indicate the result is below and above the no significant effect threshold, respectively (<30% inhibition at a concentration of 1 μg/ml)) | − (− and + indicate the result is below and above the no significant effect threshold, respectively (<30% inhibition at a concentration of 1 μg/ml)) |  |  |  |  |  |  |  |  |
| COCC(=O)Nc1cc(COc2ccc(NC(=O)Nc3cc(C(C)(C)C)nn3-c3ccc(C)cc3)c3ccccc23)ccn1 [Ref. 1, N-(4-((4-(3-(3-tert-butyl-1-p-tolyl-1H-pyrazol-5-yl)ureido)naphthalen-1-yloxy)methyl)pyridin-2-yl)-2-methoxyacetamide, reference compound] | − ^d (− and + indicate the result is below and above the no significant effect threshold, respectively (<30% inhibition at a concentration of 1 μg/ml)) | − ^d (− and + indicate the result is below and above the no significant effect threshold, respectively (<30% inhibition at a concentration of 1 μg/ml)) | 0.9 |  |  |  |  |  |  |  |  |  |  |  | 618 | 92 | 2.3 | 96 |
